The values below come from ChEMBL document CHEMBL3997854, “Discovery of Orally Efficacious Tetrahydrobenzimidazoles as TGR5 Agonists for Type 2 Diabetes” (ACS Med Chem Lett, 2017).

As usually defined, the clearance is the volume of plasma or blood freed of the substance per unit of time. High values mean efficient removal, low ones inefficient removal. As a reminder, the AUC(0-t) is exposure summed from dosing to a finite time, without extrapolation to infinity. Low readings indicate less exposure, high ones more exposure. By Cmax is commonly meant the maximum level reached in the sampled fluid or tissue. For orientation: half-life means how long it takes for the measured level to halve. High values mean slow loss, low ones fast loss. What is called bioavailability is the share of a dose that reaches the circulation, judged against a reference dose that is usually intravenous.

What all share (assay type): ADME, organism-based
Data set [1] is described as follows: Plasma concentration in C57BL/6J mouse at 30 mg/kg, po measured at 2 hrs post dose by LC-MS/MS analysis.
Data set [2] in a line: Clearance in overnight fasted C57BL/6J mouse at 5 mg/kg, iv by LC-MS/MS analysis. To be noted: in vivo.
Data set [3] can be described thus: AUClast in overnight fasted C57BL/6J mouse at 20 mg/kg, po administered via gavage after 24 hrs by LC-MS/MS analysis. Set-up: dose 20 mg/kg, time < 24 hr, route oral. Conditions: in vivo.
Data set [4] is described as follows: Cmax in overnight fasted C57BL/6J mouse at 20 mg/kg, po administered via gavage by LC-MS/MS analysis. Conditions: in vivo. Set-up: dose 20 mg/kg, route oral.
Data set [5] in a line: Half life in overnight fasted C57BL/6J mouse at 20 mg/kg, po administered via gavage by LC-MS/MS analysis. Conditions: in vivo.
Data set [6] is described as follows: Volume of distribution at steady state in overnight fasted C57BL/6J mouse at 5 mg/kg, iv by LC-MS/MS analysis. Conditions: in vivo, read-out: Vdss.
A short description of data set [7]: Bioavailability in overnight fasted C57BL/6J mouse at 5 mg/kg, iv by LC-MS/MS analysis. Conditions: in vivo.

The compound `COc1cc(C2(C)CCCc3nc(SCc4c(F)cc(OCCOCCOCCN(C)C)cc4F)n(-c4ccc(F)cc4)c32)ccc1F` (stereo not given) yielded a concentration at 2 h in data set [1] of 2110 nM. Moreover, the clearance in data set [2] was found to be 10.2 mL/min/kg. Besides, in data set [3], the AUC(0-t) at 24 h was 7160 ng·h/mL. Also, the concentration in data set [4] peaked (Cmax) at 2410 ng/mL. Besides, in data set [5], the half-life is 2 h. Further, the Vd in data set [6] was found to be 0.818 L/kg. This compound also displayed a bioavailability in data set [7] of 22.1%.

As for `COc1cc(C2(C)CCCc3nc(SCc4c(F)ccc(OCCOCCOCCN(C)C)c4F)n(-c4ccc(F)cc4)c32)ccc1Cl` (stereo not given), the concentration at 2 h in data set [1] was found to be 760 nM.

As for `COc1cc(C2(C)CCCc3nc(SCc4c(F)cc(OCCOCCOCCN(C)C)cc4F)n(-c4ccc(F)cc4)c32)ccc1Cl` (stereo not given), the concentration at 2 h in data set [1] stood at 1610 nM. In data set [2], the clearance came out at 18.1 mL/min/kg. In data set [3], this compound registered an AUC(0-t) at 24 h of 2540 ng·h/mL. In addition, the Cmax in data set [4] came out at 918 ng/mL. This compound showed a half-life in data set [5] of 1.33 h. Also, in data set [6], the Vd came out at 1.63 L/kg. The same compound gave a bioavailability in data set [7] of 13.9%.

`COc1cc(C2(C)CCCc3nc(SCc4ncccn4)n(-c4ccc(F)cc4)c32)ccc1Cl` (stereo not given): the concentration at 2 h in data set [1] is 200 nM. In data set [2], this compound gave a clearance of 58.4 mL/min/kg. Besides, the AUC(0-t) at 24 h in data set [3] was 527 ng·h/mL. The compound also showed a Cmax in data set [4] of 507 ng/mL. Besides, the Vd in data set [6] turned out to be 1.43 L/kg. Besides, the bioavailability in data set [7] came out at 9.44%.

In data set [1], `COc1ccc(C2(C)CCCc3nc(SCc4ncccn4)n(-c4ccc(F)cc4)c32)cc1OC` (stereo not given) gave a concentration at 2 h of 100 nM.

On to `COc1ccc(C2(C)CCCc3nc(SCc4c(F)cc(OCCOCCOCCN(C)C)cc4F)n(-c4ccc(F)cc4)c32)cc1OC` (stereo not given), for which, in data set [1], the concentration at 2 h is 2210 nM. In data set [2], this compound yielded a clearance of 9.68 mL/min/kg. In data set [3], this compound registered an AUC(0-t) at 24 h of 9350 ng·h/mL. In data set [4], this compound came in with a Cmax of 2890 ng/mL. In addition, the half-life in data set [5] is 2.1 h. For the same compound, the Vd in data set [6] stood at 0.947 L/kg. In data set [7], the bioavailability worked out at 27.5%.

In data set [1], `COc1cc(C2(C)CCCc3nc(SCc4ncccn4)n(-c4ccc(F)cc4)c32)ccc1F` (stereo not given) had a concentration at 2 h of 280 nM. The compound also had a clearance in data set [2] of 45.3 mL/min/kg. In data set [3], the AUC(0-t) at 24 h was determined as 785 ng·h/mL. In data set [4], the highest level (Cmax) was 913 ng/mL. In addition, in data set [6], the Vd worked out at 0.856 L/kg. For the same compound, in data set [7], the bioavailability was determined as 10.8%.
